Experimental data reported in US8603493B2, “Carbosilane dendrimers, preparation method thereof and use of same” (Dendrico, S.L., priority 2005, dated 2013).

Key:
[1] = system: PBMC; assay: Staining with Trypan Blue of PBMC treated with dendriplexes or dendrimers; settings: 72 hours, (+/−)=2/1, IM8 3.93 μM, IM16 1.99 μM, ClNH4 3.98 μM, Phe 1.96 μM, NN 3.94 μM, SF 0.68 μM, G4 100 μM, PPT 0.88 μM (0.34 μM with SF, 1 μM with G4), n = 100 cells per count
[2] = system: PBMC; assay: Flow cytometry test (size and complexity; live cells vs apoptosis-necrosis); assay type: cell-based, human; settings: 72 hours, same concentrations as Trypan Blue test
Description: The evaluation time on this occasion was 72 hours. The toxicity was evaluated on PBMC, produced in the manner described in Example 38. […] The ODN used was PPT, in the following way: • [ODN PPT] in the complex with the CBS: 2.57 (0.88 μM) • [ODN PPT] in the complex with SF: 0.34 μM • [ODN PPT] in the complex with G4: 1 μM […] The cells were either incubated with said complexes, a mixture of equal volume which contained ODN without CBS, a mixture which contained dendrimer alone, or with a mixture which contained only RPMI+complete medium which was used as negative control. The cells and/or the supernatant were then collected to be analysed by flow cytometry, confocal microscopy or cell DNA extraction. The percentages of cells with size and complexity corresponding to cells in apoptosis-necrosis were compared with the live cells. For this, the size (FW) and the complexity (SD) was evaluated by flow cytometry. To do this, a region was drawn around the cells with FW and SD corresponding to cells in apoptosis-necrosis and another around the cells with FW and SD corresponding to live cells. The percentages of cells present in each slide were compared. The graphics produced are shown in FIG. 15, wherein the X-axis represents the size (FW) and the Y-axis the complexity (SD). […] The cloud of dark cells corresponds to cells in apoptosis necrosis. The live cells are represented in grey.

[3] = system: ODN PPT; assay: Stability of the dendriplexes at different pHs; assay type: physicochemical; settings: dendriplexes with PPT, 2/1 charge ratio
Description: Stability studies were carried out on the complexes a different pHs, to determine how the changes in pH would affect the complex, since there are different anatomic, tissue or cell localizations in which the pH acidifies or alkalinifies. Examples are stomach ambient acid, the alkali of the pancreatic secretions of the small intestine, or at a cellular level, the endosome-lisosome behaviour, where it changes from a physiological pH (7.35-7.45) to an acid pH around 4. It is interesting to know, therefore, in what pH range the DNA complex could be maintained with the different CBS used. The complexes were formed following the habitual process and volumes were added in excess of different solutions at different pHs. Therefore, for each one of dendrimers Phe, ClNH4, NN, IM8 and IM16, according to Example 31, 7 solutions were prepared of dendriplexes formed with PPT, in a 2/1 charge ratio and with the following pHs: […]; 2.7; 4.7; 5.7; 6.4; 7.4; 8: The results produced are shown in the electrophoresis gels which appear in FIG. 4, wherein the height of the normal ODN migration band is shown with arrows in the lower part of the gels. The samples were loaded from left to right following an increasing pH order. No sample was formed in the wells indicated with an X.

[4] = system: peripheral blood mononuclear cells (PBMC); assay: Visual examination of PBMC incubated with dendrimers; assay type: cell-based, human; settings: for visual examination of PBMC: 48 hours
Description: The toxicity of dendrimers IM8, IM16, ClNH4, NN, Phe and the commercial controls SF (Superfect) and G4 were tested. Different quantities were taken of each one of them so that the final concentrations with which the cells were incubated were 1 μM, 5 μM, 10 μM, 20 μM and 100 μM.
The blood came from adult donors or the umbilical cord of health newborns. Said blood was diluted ½ with PBS and it was centrifuged in a Ficoll gradient. After said centrifugation, the PBMC halo was recovered and two subsequent washing-centrifuging cycles were carried out. The resulting PBMC were resuspended in complete culture medium with 10% FCS, antibiotics and glutamine.
100 μl of 10% complete medium of foetal calf serum, antibiotics and glutamine were added to a volume of 60 μl of RPMI with the corresponding dendrimer tested. 160 μl were then added to the cells seeded in 340 μl, completing a final volume of 500 μl. The cells were incubated in this way for 48 hours and then the effect of the incubation with the dendrimers was evaluated by its visual examination and by the evaluation of the mitochondrial activity.

[5] = system: PBMC; assay: Lymphoproliferative test (tritiated thymidine); assay type: cell-based, human; settings: 5 days, average of triplicate
Description: To evaluate the antigenic capacity of CBS dendrimers, a lymphoproliferative test was performed. The experiment was prepared in triplicate in a 96-well flat bottomed plate (100,000 cells per well in 200 μl of complete human AB medium with antibiotics, glutamine and 10% AB serum). […] After 5 days of incubation at 37° C. with 5% atmosphere of CO2 100 μl of supernatant was removed, then adding 100 μL of a medium with an isotopic intercalating agent of DNA, tritiated thymidine (prepared with 10% AB medium and Thymidine 1/100). The plate was then filtered using a Harvester passing its content through a filter, which was left to dry overnight (approx. 16 hours). After this period, a sheet of Methylex® containing scintillation medium was heat-melted, and it was read in a gamma camera to evaluate the number of counts (greater the counts, more proliferation). The results, which are shown below in Table 8, are expressed as tritiated thymidine counts per minute (cpm). Each result of each concentration was performed in triplicate, the value which appears in the table being the average of the 3. The PHA and the control were tested 12 times.

[6] = system: erythrocytes; assay: Visual examination of erythrocytes (hemagglutination); assay type: cell-based, human
Description: A visual examination was carried out to detect the presence/absence of hemagglutination and quantification of haemoglobin release (haemolysis test) by spectrophotometry. ClNH4 was excluded from the dendrimers of previous Example 38, as the result had been more toxic for lymphocytes, and the results were compared with those produced for a PAMAN type generation 4 dendrimer.
The erythrocytes were obtained after being separated from the PBMC using the same Ficoll gradient cited in the previous Example. They were diluted in PBS to be able to view them individually. The cells were resuspended in 500 μl of PBS and were seeded in a 24-well plate (300,000/well). As positive control, cells treated with 0.2% Triton X-100 were used. Negative control: PBS (blank). The erythrocytes were incubated with different dendrimer concentrations. The presence of hemagglutination, number of cells and release of haemoglobin by hour were evaluated by collecting 100 μl of supernatant and measuring absorbencies by spectrophotometry using a plate reader at a wavelength of 550 nm and 690 nm as reference.

SMILES	TB+ (%), cells stained with Trypan Blue [1] [%]	Apoptosis-necrosis (%) [2] [%]	Live cells (%) [2] [%]	stability of dendrimer-ODN complex at the pHs tested ([3]; pHs 2.8, 2.7, 4.7, 5.7, 6.4, 7.4, 8)	visual examination of PBMC ([4]; 1 μM)	visual examination of PBMC ([4]; 5 μM)	Measurement of the scintillation counter (tritiated thymidine counts) ([5]; 2 μM) [cpm]	Measurement of the scintillation counter (tritiated thymidine counts) ([5]; 5 μM) [cpm]	order of hemagglutination from greater to lesser [6]	Visual examination of erythrocytes incubated with dendrimers ([6]; 1 μM)	Visual examination of erythrocytes incubated with dendrimers ([6]; 5 μM)	Visual examination of erythrocytes incubated with dendrimers ([6]; 10 μM)	Visual examination of erythrocytes incubated with dendrimers ([6]; 20 μM)	pH at which the dendrimer-ODN complex is labile / dissociated [3]	induction of hemagglutination / haemolysis [6]	visual examination of PBMC ([4]; 10 μM)	biocompatibility profile, toxicity on lymphocytes and erythrocytes taken together [6]	toxicity for the lymphocytes from the visual observation (comparison) [4]
C[Si](C)(CCCN)CCC[Si](C)(CCC[Si](C)(C)CCCN)CCC[Si](CCC[Si](C)(CCC[Si](C)(C)CCCN)CCC[Si](C)(C)CCCN)(CCC[Si](C)(CCC[Si](C)(C)CCCN)CCC[Si](C)(C)CCCN)CCC[Si](C)(CCC[Si](C)(C)CCCN)CCC[Si](C)(C)CCCN.Cl.Cl.Cl.Cl.Cl.Cl.Cl.Cl [ClNH4, 2G-[Si(CH2)3NH3^+Cl^−]8]	15.7	26	71	stable at all pHs tested	O.K	Aggregates +	–	–	–	–	–	–	–	–	–	–	–	–
C[N+](C)(C)CCO[Si](C)(C)CCC[Si](C)(CCC[Si](CCC[Si](C)(CCC[Si](C)(C)OCC[N+](C)(C)C)CCC[Si](C)(C)OCC[N+](C)(C)C)(CCC[Si](C)(CCC[Si](C)(C)OCC[N+](C)(C)C)CCC[Si](C)(C)OCC[N+](C)(C)C)CCC[Si](C)(CCC[Si](C)(C)OCC[N+](C)(C)C)CCC[Si](C)(C)OCC[N+](C)(C)C)CCC[Si](C)(C)OCC[N+](C)(C)C.[I-].[I-].[I-].[I-].[I-].[I-].[I-].[I-] [IM8, 2G-[Si(OCH2CH2NMe3^+I^−)]8]	17.1	36	59	–	O.K	O.K	144	149	G4>Phe>IM16>IM8>NN	O.K	Ag+	Ag+	No cells	< 4.7	–	–	–	–
C[N+](C)(C)CCO[Si](C)(CCC[Si](C)(CCC[Si](CCC[Si](C)(CCC[Si](C)(OCC[N+](C)(C)C)OCC[N+](C)(C)C)CCC[Si](C)(OCC[N+](C)(C)C)OCC[N+](C)(C)C)(CCC[Si](C)(CCC[Si](C)(OCC[N+](C)(C)C)OCC[N+](C)(C)C)CCC[Si](C)(OCC[N+](C)(C)C)OCC[N+](C)(C)C)CCC[Si](C)(CCC[Si](C)(OCC[N+](C)(C)C)OCC[N+](C)(C)C)CCC[Si](C)(OCC[N+](C)(C)C)OCC[N+](C)(C)C)CCC[Si](C)(OCC[N+](C)(C)C)OCC[N+](C)(C)C)OCC[N+](C)(C)C.[I-].[I-].[I-].[I-].[I-].[I-].[I-].[I-].[I-].[I-].[I-].[I-].[I-].[I-].[I-].[I-] [IM16, 2G-[Si(OCH2CH2NMe3^+I^−)2]8]	18.5	28	67	–	O.K	O.K	175	141	G4>Phe>IM16>IM8>NN	O.K	Ag++	–	No cells	–	induces agglutination	Cell aggregates +	–	–
CN(CCO[Si](C)(C)CCC[Si](C)(CCC[Si](CCC[Si](C)(CCC[Si](C)(C)OCCN(C)CC[N+](C)(C)C)CCC[Si](C)(C)OCCN(C)CC[N+](C)(C)C)(CCC[Si](C)(CCC[Si](C)(C)OCCN(C)CC[N+](C)(C)C)CCC[Si](C)(C)OCCN(C)CC[N+](C)(C)C)CCC[Si](C)(CCC[Si](C)(C)OCCN(C)CC[N+](C)(C)C)CCC[Si](C)(C)OCCN(C)CC[N+](C)(C)C)CCC[Si](C)(C)OCCN(C)CC[N+](C)(C)C)CC[N+](C)(C)C.[I-].[I-].[I-].[I-].[I-].[I-].[I-].[I-] [NN, 2G-[Si(O(CH2)2N(Me)(CH2)2NMe3^+I^−)]8]	10.6	24	70	–	O.K	O.K	145	160	G4>Phe>IM16>IM8>NN	O.K	O.K	Ag+/−	No cells	–	does not	–	better biocompatibility profiles	least toxic
